Measurements from US20230017597A1, “8-SUBSTITUTED STYRYL XANTHINE DERIVATIVES AND USES THEREOF” (SUNSHINE LAKE PHARMA CO., LTD., priority 2019, published 2023).

What was measured:
[1] = molecular target: T1, human adenosine A2A receptor (Homo sapiens, UniProt P29274); test: Antagonizing effect on human adenosine A2A receptor (NECA-stimulated cAMP, TR-FRET, HEK-293 cells); format: cell-based; conditions: inhibition of cAMP produced by NECA (3 nM), HEK-293 cells expressing human recombinant A2A receptor
T1 construct: expressed in transfected cells; host or cells: HEK-293
Experimental: The experimental system uses human recombinant adenosine A2A receptor, which is stably expressed in HEK-293 cell line. HEK-293 cells were inoculated into culture plate at a density of 1.25×10^5 cells/mL. The medium was changed by modified HBSS solution with pH 7.4, different concentrations of test compounds ([…], 1 μM, […], 10 nM, 1 nM, 0.1 nM) and solvents (PBS with 0.1% DMSO) were added, and the plate was incubated at 37° C. for 10 min. cAMP (cyclic adenosine monophosphate) concentration in culture medium was detected by TR-FRET method. NECA was used as a positive control in this experiment, (1) test compounds alone were used to stimulate cells to produce a certain amount of cAMP, and then NECA (0.1 μM) alone was used to stimulate cells to produce a certain amount of cAMP. A test compound is considered to have agonistic activity on adenosine A2A receptor if the test compound alone stimulates cells to produce cAMP more than 50% of the amount of cAMP produced by NECA (0.1 μM) alone. (2) All cells were first incubated with test compounds and then stimulated with NECA (3 nM). In addition, NECA (3 nM) alone was used to stimulate cells to produce a certain amount of cAMP. […] IC50 was calculated using MathIQ™ (ID Business Solutions Ltd., UK) through nonlinear, least squares regression equation analysis.

[2] = Pharmacokinetic evaluation in rats after intravenous or gavage administration; format: in vivo, SD rats; conditions: for AUC(0-inf) / AUC(0-t) / Cmax / MRT inf / Tmax / clearance / half-life / Vd: SD, rat, plasma; for Vd: read-out: Vss; for F: gavage 5 mg/kg vs intravenous 1 mg/kg
Experimental: (§1) The LC-MS/MS system for analysis includes the Agilent 1200 series vacuum degasser, a quaternary pump, an orifice plate sampler, a thermostatted column oven, and an API4000Qtrap triple quadrupole mass spectrometer with an electrospray ionization source (ESI).
(§2) Waters ACQUITY UPLC CSH C18, 2.1×50 mm, 1.7 μm column was used for analysis, and 0.8 μL of sample was injected. Analytical conditions: mobile phase was H2O+2 mM HCOONH4 (ammonium formate)+0.1% FA (formic acid) (mobile phase A) and MeOH (methanol)+2 mM HCOONH4 (ammonium formate)+0.1% FA (formic acid) (mobile phase B). Flow rate was 0.7 mL/min.
The experiment was divided into two groups: one was administered by intravenous injection, and the other was administered by intragastric administration. The compound of the present invention was administered to a test animal (overnight fast for 12 hours) in the form of 10% DMA (heating)+60% PEG400+30% saline solution. For the group of intravenous administration, the administration dose was 1 mg/kg, and vein blood samples (0.3 mL) were collected at the time points of 0.083, 0.25, 0.5, 1.0, 2.0, 5.0, 7.0 and 24 h after administration. EDTA-K2 as anticoagulant was added into the blood vessel. The plasma solutions were collected by centrifuging each blood sample at 3,000 rpm or 4,000 rpm for 10 minutes and kept at −20° C. or −70° C. For the group of intragastric administration, the administration dose was 5 mg/kg, and vein blood samples (0.3 mL) were collected at the time points of 0.25, 0.5, 1.0, 2.0, 5.0, 7.0 and 24 h after administration. EDTA-K2 as anticoagulant was added into the blood vessel. The plasma solutions were collected by centrifuging each blood sample at 3,000 rpm or 4,000 rpm for 10 minutes and kept at −20° C. or −70° C.
20 μL of plasma was taken, 120 μL of IS working solution was added to the plasma, and the plasma was vortexed for 2 min. The mixed solution was then centrifuged at 12,000 rpm for 2 min. 100 μL of the supernatant was taken, 110 μL of MeOH/H2O (v/v=1/1) was added, and the solution was vortexed for 2 minutes, then 5 μL was taken for injection into the LC-MS/MS system. LC-MS/MS method was used to detect the concentration of target compounds, and non-compartment model was used to calculate pharmacokinetic parameters.

[3] = Pharmacokinetic evaluation in beagles after intravenous or gavage administration; format: in vivo; conditions: for AUC(0-inf) / AUC(0-t) / Cmax / MRT inf / Tmax / clearance / half-life / Vd: beagle, dog, plasma; for Vd: read-out: Vss; for F: gavage 2.5 mg/kg vs intravenous 0.5 mg/kg
Experimental: The test animals are mice and/or dogs.
as §1
as §2, with “A waters xbridge C18 UPLC,” for “Waters ACQUITY UPLC CSH C18,”, “[…]” for “1.7 μm”, “analysis” for “analysis,”, “0.5” for “0.8”, “The flow” for “Flow”
The experiment was divided into two groups: one was administered by intravenous injection, and the other was administered by intragastric administration. The compound of the present invention was administered to test animals in the form of 10% DMA+60% PEG400+30% saline solution. […] Each blood sample was centrifuged at 3,000 rpm or 4,000 rpm for 10 minutes. The plasma solutions were collected and anticoagulant was EDTA-K2. The plasma solutions were then kept at −20° C. or −70° C. […]
10 μL of plasma was taken, 120 μL of IS working solution was added to the plasma, and the plasma was vortexed for 2 min. The mixed solution was then centrifuged at 12,000 rpm for 2 min. 80 μL of the supernatant was taken, 140 μL of MeOH/H2O (v/v=1/1) was added, and the solution was vortexed for 2 minutes, then 1.0 μL was taken for injection into the LC-MS/MS system. LC-MS/MS method was used to detect the concentration of target compounds, and non-compartment model was used to calculate pharmacokinetic parameters.

[4] = intravenous injection, 0.5 mg/kg

T1 sequence (P29274 whole entry): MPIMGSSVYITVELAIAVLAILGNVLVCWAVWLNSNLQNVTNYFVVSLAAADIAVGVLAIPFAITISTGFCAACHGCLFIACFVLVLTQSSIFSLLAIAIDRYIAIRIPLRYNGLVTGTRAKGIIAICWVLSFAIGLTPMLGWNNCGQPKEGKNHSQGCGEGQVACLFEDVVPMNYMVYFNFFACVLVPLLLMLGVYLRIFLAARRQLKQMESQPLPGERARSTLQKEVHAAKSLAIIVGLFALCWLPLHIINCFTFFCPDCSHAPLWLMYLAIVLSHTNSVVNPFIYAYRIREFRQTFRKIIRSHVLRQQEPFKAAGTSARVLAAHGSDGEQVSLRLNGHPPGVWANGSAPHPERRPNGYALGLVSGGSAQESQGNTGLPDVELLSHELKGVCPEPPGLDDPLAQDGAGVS

SMILES: CCn1c(=O)c2c(nc(/C=C/c3ccc(OC4CCNCC4)cc3)n2C)n(CC)c1=O [Example 1, (E)-1,3-diethyl-7-methyl-8-(4-(piperidin-4-yloxy)styryl)-1H-purine-2,6(3H,7H)-dione]
- IC50 [1]: 550 nM

SMILES: CCN1CCC(Oc2ccc(/C=C/c3nc4c(c(=O)n(CC)c(=O)n4CC)n3C)cc2)CC1 [Example 3, (E)-1,3-diethyl-7-methyl-8-(4-((1-ethylpiperidin-4-yl)oxy)styryl)-1H-purine-2,6(3H,7H)-dione]
- IC50 [1]: 1480 nM

SMILES: CCn1c(=O)c2c(nc(/C=C/c3ccc(OC4CCN(C(C)=O)CC4)cc3)n2C)n(CC)c1=O [Example 6, (E)-8-(4-((1-acetylpiperidin-4-yl)oxy)styryl)-1,3-diethyl-7-methyl-1H-purine-2,6 (3H,7H)-dione]
- IC50 [1]: 350 nM
- AUC(0-inf) ([2]; intravenous injection, 1 mg/kg): 6290 ng·h/mL
- AUC(0-t) ([2]; intravenous injection, 1 mg/kg): 6230 ng·h/mL
- Cmax ([2]; intravenous injection, 1 mg/kg): 1610 ng/mL
- MRT inf ([2]; intravenous injection, 1 mg/kg): 4.37 h
- Tmax ([2]; intravenous injection, 1 mg/kg): 0.083 h
- clearance ([2]; intravenous injection, 1 mg/kg): 2.65 mL/min/kg
- half-life ([2]; intravenous injection, 1 mg/kg): 3.82 h
- Vd ([2]; intravenous injection, 1 mg/kg): 0.696 L/kg
- AUC(0-inf) ([2]; po, gavage, 5 mg/kg): 40400 ng·h/mL
- AUC(0-t) ([2]; po, gavage, 5 mg/kg): 36900 ng·h/mL
- Cmax ([2]; po, gavage, 5 mg/kg): 2930 ng/mL
- MRT inf ([2]; po, gavage, 5 mg/kg): 9.22 h
- Tmax ([2]; po, gavage, 5 mg/kg): 1.5 h
- half-life ([2]; po, gavage, 5 mg/kg): 6.96 h
- F [2]: 118.4%
- AUC(0-inf) [3, 4]: 6110 ng·h/mL
- AUC(0-t) [3, 4]: 5830 ng·h/mL
- Cmax [3, 4]: 634 ng/mL
- MRT inf [3, 4]: 7.37 h
- Tmax [3, 4]: 0.25 h
- clearance [3, 4]: 1.36 mL/min/kg
- half-life [3, 4]: 5.81 h
- Vd [3, 4]: 0.604 L/kg
- AUC(0-inf) ([3]; po, gavage, 2.5 mg/kg): 56500 ng·h/mL
- AUC(0-t) ([3]; po, gavage, 2.5 mg/kg): 47200 ng·h/mL
- Cmax ([3]; po, gavage, 2.5 mg/kg): 3320 ng/mL
- MRT inf ([3]; po, gavage, 2.5 mg/kg): 12.5 h
- Tmax ([3]; po, gavage, 2.5 mg/kg): 2.67 h
- half-life ([3]; po, gavage, 2.5 mg/kg): 9.11 h
- F [3]: 170.5%

SMILES: CCn1c(=O)c2c(nc(/C=C/c3ccc(OC4CCN(S(C)(=O)=O)CC4)cc3)n2C)n(CC)c1=O [Example 8, (E)-1,3-diethyl-7-methyl-8-(4-((1-(methylsulfonyl)piperidin-4-yl)oxy)styryl)-1H-purine-2,6(3H, 7H)-dione]
- IC50 [1]: 750 nM
- AUC(0-inf) ([2]; intravenous injection, 1 mg/kg): 1830 ng·h/mL
- AUC(0-t) ([2]; intravenous injection, 1 mg/kg): 1810 ng·h/mL
- Cmax ([2]; intravenous injection, 1 mg/kg): 817 ng/mL
- MRT inf ([2]; intravenous injection, 1 mg/kg): 3.1 h
- Tmax ([2]; intravenous injection, 1 mg/kg): 0.083 h
- clearance ([2]; intravenous injection, 1 mg/kg): 9.1 mL/min/kg
- half-life ([2]; intravenous injection, 1 mg/kg): 4.64 h
- Vd ([2]; intravenous injection, 1 mg/kg): 1.69 L/kg
- AUC(0-inf) ([2]; po, gavage, 5 mg/kg): 11900 ng·h/mL
- AUC(0-t) ([2]; po, gavage, 5 mg/kg): 11900 ng·h/mL
- Cmax ([2]; po, gavage, 5 mg/kg): 2030 ng/mL
- MRT inf ([2]; po, gavage, 5 mg/kg): 4.07 h
- Tmax ([2]; po, gavage, 5 mg/kg): 1.67 h
- half-life ([2]; po, gavage, 5 mg/kg): 2.8 h
- F [2]: 131.5%
- AUC(0-inf) [3, 4]: 6310 ng·h/mL
- AUC(0-t) [3, 4]: 4990 ng·h/mL
- Cmax [3, 4]: 775 ng/mL
- MRT inf [3, 4]: 14.4 h
- Tmax [3, 4]: 0.083 h
- clearance [3, 4]: 1.32 mL/min/kg
- half-life [3, 4]: 9.43 h
- Vd [3, 4]: 1.14 L/kg
- AUC(0-inf) ([3]; po, gavage, 2.5 mg/kg): 31800 ng·h/mL
- AUC(0-t) ([3]; po, gavage, 2.5 mg/kg): 22700 ng·h/mL
- Cmax ([3]; po, gavage, 2.5 mg/kg): 1720 ng/mL
- MRT inf ([3]; po, gavage, 2.5 mg/kg): 18.1 h
- Tmax ([3]; po, gavage, 2.5 mg/kg): 0.667 h
- half-life ([3]; po, gavage, 2.5 mg/kg): 11.5 h
- F [3]: 91.1%
